Reference: patent US8815909B2, “Diaminocyclohexane compounds and uses thereof” (Bristol-Myers Squibb Company, priority 2011, dated 2014)
Where two headings read alike, the source gives them in different places.

Target: T1, human Y4 receptor (Homo sapiens, UniProt P50391)
T1 construct: expressed in transfected cells
Assay: NPY4 cAMP HTRF Agonist Assay (inhibitory cAMP assay, Gi activation by Y4 agonism)
Type: cell-based
Method in brief: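 Y4 agonism read as lowered forskolin-stimulated cAMP (HTRF, 1 h detection at room temperature). Stable human Y4 CHO clone, 5000 cells/well, incubated 30 min at room temperature with compounds plus forskolin and IBMX in PBS.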

[1] = TABLE 5, R2 is Pyridinyl-CF3, read-out: hY4 CAMP EC50
[2] = human Y4 receptor, cAMP, read-out: hY4 CAMP EC50
[3] = TABLE 2, R2 is Phenyl-CN, read-out: hY4 CAMP EC50
[4] = human Y4 stable CHO clonal cells, forskolin + IBMX, read-out: NPY4 cAMP HTRF Agonist Assay EC50
[5] = second TABLE 1, R2 is Phenyl-CF3, read-out: hY4 CAMP EC50

T1 sequence (P50391 whole entry): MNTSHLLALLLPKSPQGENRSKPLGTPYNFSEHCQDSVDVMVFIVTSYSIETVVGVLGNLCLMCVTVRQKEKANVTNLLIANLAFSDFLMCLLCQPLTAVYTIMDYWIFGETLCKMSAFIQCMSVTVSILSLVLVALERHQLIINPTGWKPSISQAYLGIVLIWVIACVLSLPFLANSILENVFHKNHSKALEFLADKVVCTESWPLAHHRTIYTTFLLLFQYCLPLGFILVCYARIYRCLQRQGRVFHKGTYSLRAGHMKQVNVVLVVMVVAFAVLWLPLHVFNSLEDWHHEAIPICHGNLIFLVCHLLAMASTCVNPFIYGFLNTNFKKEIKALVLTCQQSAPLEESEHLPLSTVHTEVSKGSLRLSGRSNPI

`NC(=O)c1cccc(-c2ccnc(N[C@@H]3CCCC[C@H]3N[C@H]3CCCN(c4ccc(C(F)(F)F)cn4)C3)c2)c1` [Example 319] showed an EC50 [1] of 10 nM.

In the case of `CNC(=O)c1cccc(-c2cnc(N[C@@H]3CCCC[C@H]3N[C@H]3CCCN(c4ccc5nc(C)nn5c4)C3)o2)c1` [Example 496], the EC50 [2] is reported as 4 nM.

Work on `C[C@H](O)c1cccc(-c2ccnc(N[C@@H]3CCCC[C@H]3N[C@H]3CCCN(c4ccc(C#N)cc4)C3)c2)c1` [Example 268] yielded an EC50 [3] of 8 nM.

Work on `CC(C)OC(=O)Nc1cccc(-c2cnc(N[C@@H]3CCCC[C@H]3N[C@H]3CCCN(c4cnc(C(F)(F)F)nc4)C3)o2)c1` [Example 421] yielded an EC50 [2] of 23 nM.

Compound `N#Cc1ccc(N2CCC[C@H](N[C@@H]3CCCC[C@H]3Nc3cc(-c4ccccc4N)ccn3)C2)cc1` [Example 275] has an EC50 [3] of 872 nM.

Compound `COC(=O)Nc1cccc(-c2cnc(N[C@@H]3CCCC[C@H]3N[C@H]3CCCN(c4cnc(-c5noc(C)n5)nc4)C3)o2)c1` [Example 466] has an EC50 [2] of 1 nM.

With `Fc1cc(N2CCC[C@H](N[C@@H]3CCCC[C@H]3Nc3ncc(-c4ccc(OC(F)(F)F)cc4)o3)C2)ccc1C(F)(F)F` [Example 73, (1R,2R)—N1-((S)-1-(3-Fluoro-4-(trifluoromethyl)phenyl)piperidin-3-yl)-N2-(5-(4-(trifluoromethoxy)phenyl)oxazol-2-yl)cyclohexane-1,2-diamine bis-trifluoroacetate] the EC50 [4] was 83 nM.

`CN(C)c1cccc(-c2ccnc(N[C@@H]3CCCC[C@H]3N[C@H]3CCCN(c4ccc(C(F)(F)F)cc4)C3)c2)c1` [Example 159] showed an EC50 [5] of 239 nM.

For `C[C@]1(N[C@@H]2CCCC[C@H]2Nc2ncc(-c3ccc(OC(F)(F)F)cc3)o2)CCCN(c2ccc([N+](=O)[O-])cc2)C1` [Example 287], the EC50 (TABLE 3, R2 is Phenyl-NO2, read-out: hY4 CAMP EC50) was 1 nM.

`Cc1nc2ccc(N3CCC[C@H](N[C@@H]4CCCC[C@H]4Nc4ncc(-c5ccc(F)cc5F)o4)C3)cn2n1` [Example 493] was tested, and the EC50 [2] was 47 nM.

In the case of `N#Cc1ccc(N2CCC[C@H](N[C@@H]3CCCC[C@H]3Nc3cc(Br)ccn3)C2)cc1` [Example 50, 4-((S)-3-((1R,2R)-2-(4-Bromopyridin-2-ylamino)cyclohexylamino)piperidin-1-yl)benzonitrile], the EC50 [4] is reported as 231 nM.

`COC(=O)Nc1cccc(-c2cnc(N[C@@H]3CCCC[C@H]3N[C@H]3CCCN(c4ccc5ncnn5c4)C3)o2)c1` [Example 483] was tested, and the EC50 [2] was 4 nM.

`NC(=O)c1cccc(-c2cnc(N[C@@H]3CCCC[C@H]3N[C@H]3C[C@@H]4C[C@H]3N(c3ccc(C(F)(F)F)cc3)C4)o2)c1` [Example 178] showed an EC50 [5] of 2 nM.

`NC(=O)c1cccc(-c2cnc(N[C@@H]3CCCC[C@H]3N[C@H]3C[C@@H]4C[C@H]3N(c3ccnc(C(F)(F)F)c3)C4)o2)c1` [Example 325] was tested, and the EC50 [1] was 567 nM.

`OCc1cc(-c2ccnc(N[C@@H]3CCCC[C@H]3N[C@H]3CCCN(c4ccc(C(F)(F)F)cc4)C3)c2)ccc1F` [Example 165] was tested, and the EC50 [5] was 38 nM.

`O=[N+]([O-])c1ccc(N2CCC[C@H](N[C@@H]3CCCC[C@H]3Nc3ncc(-c4ccc(OC(F)(F)F)cc4)o3)C2)cc1` [Example 1, (1R,2R)—N1-((S)-1-(4-Nitrophenyl)piperidin-3-yl)-N2-(5-(4-(trifluoromethoxy)phenyl)oxazol-2-yl)cyclohexane-1,2-diamine] showed an EC50 [4] of 6 nM.

In the case of `CNC(=O)c1cccc(-c2cnc(N[C@@H]3CCCC[C@H]3N[C@H]3CCCN(c4ccc(C(F)(F)F)cc4)C3)o2)c1` [Example 105, N-Methyl (3-(2-((1R,2R)-2((S)-1-(4-trifluoromethyl)phenyl)piperidin-3-ylamino)cyclohexylamino)oxazol-5-yl)benzamide], the EC50 [4] is reported as 0.2 nM.

In the case of `NC(=O)c1cccc(-c2cnc(N[C@@H]3CCCC[C@H]3N[C@H]3CCCN(c4ccc(C(F)(F)F)cn4)C3)o2)c1` [Example 318], the EC50 [1] is reported as 1 nM.

`NC(=O)c1cccc(-c2ccnc(N[C@@H]3CCCC[C@H]3N[C@H]3CCCN(c4ccc(F)cc4)C3)c2)c1` [Example 453] gave an EC50 [2] of 41 nM.

Work on `N#Cc1ccc(N2CCC[C@H](N[C@@H]3CCCC[C@H]3Nc3cc(-c4ccc(CO)cc4)ccn3)C2)cc1` [Example 218] yielded an EC50 [3] of 302 nM.
